Reference: US8604167B2, “CD133 epitopes” (ImmunoCellular Therapeutics, Ltd., priority 2009, dated 2013)

Key:
[1] = system: CD8+ T cells; assay: Peptide-HLA-A2 dimer staining of CTL stimulated with peptide-pulsed DC; type: cell-based, human; settings: for peptide dimer staining relative to background, in words: summary of Table 7
Procedure: (§1) HLA-A2 positive PBMC isolated by leukapheresis from two healthy human subjects were obtained from HemaCare Corporation (Van Nuys, Calif.). The PBMC from each subject were used to prepare CD8+ T cells and autologous dendritic cells for stimulation with immunogenic peptides. Following stimulation, the T cells were subjected to functional assays.
(§2) CD8+ T cells were prepared from each subject's PBMC by positive selection using CD8 MicroBeads (Miltenyi Biotec, Bergisch Gladbach, Germany), according to the manufacturer's instructions.
(§3) Autologous DC were prepared from adherent PBMC (2×10^6 cells/ml) cultured for 5 days in the presence of 500 IU/ml granulocyte macrophage colony-stimulating factor (Leucomax; Schering-Plough, Kenilworth, N.J.) and 500 IU/ml IL-4 (R&D Systems, Minneapolis, Minn.) in complete medium [RPMI 1640 supplemented with 10% heat-inactivated human AB serum, […] L-glutamine (Invitrogen) and antibiotics]. On day 5, DC maturation was induced by addition of 50 ng/ml TNF-α. On day 7, the mature DC were collected and pulsed with 20 μg/ml peptide for 4 hours at 20° C. Peptide-pulsed DC not used immediately were frozen for later use.
The peptide pulsed matured DC were diluted to 3×10^5 cells/mL in CTL complete medium and irradiated at 2800 Rads. The initial in vitro stimulation was performed at a DC:T cell ratio of 1:5 by plating 100 μL/well of each batch of DC into a 96 well round bottom tissue culture plate (3×10^4 DC/well). One plate was prepared per peptide. To all wells, 100 μL of the CD8+ enriched T cell population was added at 1.5×10^6 cells/mL was added, resulting in a final concentration of 1.5×10^5 T-cells/well. Plates were incubated at 37° C., 5% carbon dioxide, and high humidity.
On days 7 and 14, cryopreserved peptide pulsed mature DC were thawed and used to restimulate the T-cells. Cryopreserved samples of each peptide pulsed DC batch were removed from liquid nitrogen and thawed rapidly in a 37° C. water-bath. Samples were diluted at least 1:10 with AIM V medium (Invitrogen, Carlsbard, Calif.). Samples were washed twice by centrifugation at 400 g for 7 minutes, and representative samples were evaluated for cell concentration and viability. Each DC batch was diluted to 3×10^5 cells/mL in CTL complete medium containing 20 U/mL IL-2, 10 ng/mL IL-7, and 2 μg/mL of the specific peptide, and the DC were irradiated with 2800 Rads. In vitro stimulation plates were removed carefully from the incubator and 90 μL of supernatant (no cells) were removed from each well. To each well, 100 μL of the appropriate DC batch was added. Plates were then incubated further at 37° C., 5% carbon dioxide, and high humidity.
After the second in vitro stimulation, the plates were checked daily for T-cell proliferation. When required, plates were split (one plate will become two plates) to avoid overgrowth of the CTL. […] The plates were mixed to ensure a homogenous population, then 90 μL of each CTL well was transferred into a new 96 well U bottomed plate. When splitting was performed within 3 days of the last in vitro stimulation, 100 μL of CTL complete medium containing 20 U/mL IL-2 and 10 ng/mL IL-7 was added. If splitting was performed later than 3 days from the last in vitro stimulation, 100 μL of complete CTL medium containing 40 U/mL IL-2 and 20 ng/mL IL-7 was added. Split plates were returned to the incubator at 37° C., 5% carbon dioxide, and high humidity.
On day 21, the T cells were stimulated a fourth time. The process described for in vitro stimulations 2-3 was repeated with the exception that IL-2 was replaced with 25 ng/mL IL-15.
Stimulated CTL were assayed for staining using peptide-HLA-A2 dimers. Cells were collected 19 days after the third stimulation (subject 1) or 6 days after the fourth stimulation (subjects 1 and 2).

[2] = system: CD8+ T cells; assay: IFN-γ ELISPOT of CTL stimulated with peptide-pulsed DC; type: cell-based, human; set-up: key to ELISPOT IFN-γ spots vs negative control: ++: Wells that clearly had more spots than the negative control were indicated as positive
Procedure: as §1, §2
as §3, with “use. […]” for “use.”
On days 7 and 14, cryopreserved peptide pulsed mature DC were thawed and used to restimulate the T-cells. […] Samples were washed twice by centrifugation at 400 g for 7 minutes, and representative samples were evaluated for cell concentration and viability. […]

[3] = molecular target: HLA-A*0201 (Homo sapiens, UniProt P04439, D140Y/D185E/D98H/E176V/E277Q/G131W/G231S/I119V/I121R/I166T/I218V/L300P/L318F/N151K/N90K/P208A/P217A/Q86G/Q94H/R138H/R169H/T345S); assay: REVEAL MHC binding assay, HLA-A*0201; settings: HLA-A*0201 binding, relative to positive control peptide
Description: Fifty-five of the candidate peptides were assembled with HLA-A*0201 and analyzed for MHC binding to determine their level of incorporation into MHC molecules using the REVEAL™ MHC binding assay (ProImmune Ltd., Oxford, UK). Binding to MHC molecules was compared to that of two known T-cell epitopes: an intermediate control peptide and a positive control peptide with weak and very strong binding properties, respectively. Eleven peptides bound to HLA-A*0201 as well or better than the positive control, as indicated on Table 5.

11 (YLQWIEFSI; listed as Homo sapiens) [compound 11]
percentages of cells that stained positive (above background) for both dimer and CD8 ([1]; Subject 1, 3rd stim): 38.64% | percentages of cells that stained positive (above background) for both dimer and CD8 ([1]; Subject 1, 4th stim): 20.74% | percentages of cells that stained positive (above background) for both dimer and CD8 ([1]; Subject 2, 4th stim): 19.39% | peptide dimer staining relative to background, in words [1]: stained strongly above background | ELISPOT IFN-γ spots vs negative control ([2]; Subject 2, 4th stim): ++ | ELISPOT result in words ([2]; subject 3 (so in the source)): clearly positive

19 (SQLNSNPEL; listed as Homo sapiens) [compound 19]
% Positive Control [3]: 163.06%

20 (GLLERVTRI; listed as Homo sapiens) [compound 20]
percentages of cells that stained positive (above background) for both dimer and CD8 ([1]; Subject 1, 3rd stim): 0.27% | percentages of cells that stained positive (above background) for both dimer and CD8 ([1]; Subject 1, 4th stim): −0.41% | percentages of cells that stained positive (above background) for both dimer and CD8 ([1]; Subject 2, 4th stim): −0.32% | peptide dimer staining relative to background, in words [1]: indistinguishable from background

21 (FLLPALIFA; listed as Homo sapiens) [compound 21]
percentages of cells that stained positive (above background) for both dimer and CD8 ([1]; Subject 1, 3rd stim): 20.43% | percentages of cells that stained positive (above background) for both dimer and CD8 ([1]; Subject 1, 4th stim): 13.23% | percentages of cells that stained positive (above background) for both dimer and CD8 ([1]; Subject 2, 4th stim): 21.18% | peptide dimer staining relative to background, in words [1]: stained strongly above background

28 (ILSAFSVYV; listed as Homo sapiens) [compound 28]
percentages of cells that stained positive (above background) for both dimer and CD8 ([1]; Subject 1, 3rd stim): 4.15% | percentages of cells that stained positive (above background) for both dimer and CD8 ([1]; Subject 1, 4th stim): 0.12% | percentages of cells that stained positive (above background) for both dimer and CD8 ([1]; Subject 2, 4th stim): 14.08% | peptide dimer staining relative to background, in words [1]: stained moderately above background
